Reference: ChEMBL document CHEMBL2331198, “Identification of small-molecule inhibitors of the human S100B-p53 interaction and evaluation of their activity in human melanoma cells” (Bioorg Med Chem, 2013)
Calls of active or inactive are those of the source. No cut-off for these calls is given here.

How the values were obtained:
[1] = target: T1, Protein S100-B (Homo sapiens) (UniProt P04271); experiment: Inhibition of human S100B/humanTAMRA-p53(367-388) interaction assessed as inhibition rate at 50 uM by fluorescence polarization assay
T1 sequence (whole entry): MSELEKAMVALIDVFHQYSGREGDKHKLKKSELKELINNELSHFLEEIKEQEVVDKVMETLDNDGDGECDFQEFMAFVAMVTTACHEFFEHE

[2] = system: WM-115; experiment: Cytotoxicity against human WM115 cells assessed as growth inhibition measured after 72 hrs by crystal violet assay; type: functional, cell-based; conditions: WM-115, 72 h
[3] = target: T1, Protein S100-B (Homo sapiens); experiment: Inhibition of human S100B/humanTAMRA-p53(367-388) interaction assessed as inhibition rate at 93 uM by fluorescence polarization assay
[4] = target: T2, Protein S100-B (Homo sapiens, UniProt P04271); experiment: Inhibition of human S100B/human TAMRA-p53(367-388) interaction by fluorescence polarization assay
T2 sequence (P04271 whole entry): T1 sequence (whole entry)

[5] = target: T1, Protein S100-B (Homo sapiens); experiment: Inhibition of human S100B/humanTAMRA-p53(367-388) interaction by In situ proximity ligation assay

CN1CCN(c2ccc(N)c(N3CCN(C)CC3)c2)CC1
inhibition [1]: < 50%

Nc1ccc(N2CCNCC2)cc1
inhibition [1]: < 50%

N=C(N)c1ccc(OCCCCCOc2ccc(C(=N)N)cc2)cc1 [PENTAMIDINE]
IC50 [2]: 4.8 µM
inhibition [3]: 14.2%
IC50 [4]: > 100 µM

CCN(CC)c1ccc(N)c(C)c1
IC50 [2]: 8.5 µM
IC50 [4]: 8.4 µM
Ki [4]: 5 µM

Nc1cc(N2CCCCC2)ccc1N1CCCCC1
IC50 [2]: 36.4 µM
IC50 [4]: 31.5 µM
Ki [4]: 25.1 µM

COc1ccc(/C=N/c2ccc(O)cc2)cc1
IC50 [4]: 36.3 µM

Nc1ccc(N2CCCCC2)cc1N1CCCCC1
inhibition [5]: Active
IC50 [2]: 4.9 µM
IC50 [4]: 2 µM
Ki [4]: < 1 µM
